# Measurements: ChEMBL document CHEMBL4043168, “The design and SAR of a novel series of 2-aminopyridine based LRRK2 inhibitors” (Bioorg Med Chem Lett, 2017)
# Key:
# [1] = target: Serine/threonine-protein kinase PLK1 (Homo sapiens) (UniProt P53350); assay: Inhibition of PLK1 conserved Lys1 (CFEISDADTKEVFAGKIVPK) in human PBMC at 0.1 uM
# [2] = target: Dual specificity mitogen-activated protein kinase kinase 7 (Homo sapiens) (UniProt O14733); assay: Inhibition of MAP2K7 conserved Lys2 (DVKPSNILLDER) in human PBMC at 1 uM
# [3] = target: T1, Phosphatidylinositol 4,5-bisphosphate 3-kinase catalytic subunit delta isoform (Homo sapiens) (UniProt O00329); assay: Inhibition of PIK3CD ATP binding site (VNWLAHNVSKDNRQ) in human PBMC at 0.1 uM
# T1 sequence (whole entry): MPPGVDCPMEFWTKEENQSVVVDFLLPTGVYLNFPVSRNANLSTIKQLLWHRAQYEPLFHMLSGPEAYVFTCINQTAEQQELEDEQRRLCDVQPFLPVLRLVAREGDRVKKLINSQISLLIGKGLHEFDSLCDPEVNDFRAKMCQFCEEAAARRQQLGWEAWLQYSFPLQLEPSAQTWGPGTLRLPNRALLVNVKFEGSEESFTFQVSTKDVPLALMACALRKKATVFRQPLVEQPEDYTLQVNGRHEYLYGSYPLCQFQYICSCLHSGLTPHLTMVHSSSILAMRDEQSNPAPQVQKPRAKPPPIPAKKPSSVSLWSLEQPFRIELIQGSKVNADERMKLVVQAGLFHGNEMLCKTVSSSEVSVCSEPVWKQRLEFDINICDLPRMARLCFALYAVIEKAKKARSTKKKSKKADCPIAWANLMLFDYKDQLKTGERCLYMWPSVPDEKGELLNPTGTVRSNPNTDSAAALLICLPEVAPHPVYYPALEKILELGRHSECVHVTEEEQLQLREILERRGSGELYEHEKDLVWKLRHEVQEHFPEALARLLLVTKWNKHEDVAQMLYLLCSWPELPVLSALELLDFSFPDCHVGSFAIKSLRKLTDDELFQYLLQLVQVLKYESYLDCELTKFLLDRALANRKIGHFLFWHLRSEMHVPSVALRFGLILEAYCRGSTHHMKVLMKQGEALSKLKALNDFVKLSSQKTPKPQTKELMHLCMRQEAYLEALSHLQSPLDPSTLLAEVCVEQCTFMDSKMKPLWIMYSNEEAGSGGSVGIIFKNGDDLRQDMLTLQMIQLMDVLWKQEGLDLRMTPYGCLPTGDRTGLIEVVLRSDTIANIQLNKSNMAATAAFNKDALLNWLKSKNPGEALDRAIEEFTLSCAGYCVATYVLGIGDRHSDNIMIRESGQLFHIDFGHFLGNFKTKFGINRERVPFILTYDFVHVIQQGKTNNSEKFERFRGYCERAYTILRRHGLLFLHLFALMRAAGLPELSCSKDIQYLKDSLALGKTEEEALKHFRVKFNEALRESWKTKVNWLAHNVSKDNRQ
# [4] = target: Serine/threonine-protein kinase 10 (Homo sapiens) (UniProt O94804); assay: Inhibition of LOK conserved Lys2 (DLKAGNVLMTLEGDIR) in human PBMC at 0.1 uM
# [5] = target: Mitogen-activated protein kinase kinase kinase kinase 5 (Homo sapiens) (UniProt Q9Y4K4); assay: Inhibition of KHS1 conserved Lys1 (NVHTGELAAVKIIK) in human PBMC at 0.1 uM
# [6] = target: Serine/threonine-protein kinase SIK3 (Homo sapiens) (UniProt Q9Y2K2); assay: Inhibition of QSK conserved Lys1 (VAIKIIDKTQLDEENLKK) in human PBMC at 1 uM
# [7] = target: Serine/threonine-protein kinase Nek4 (Homo sapiens) (UniProt P51957); assay: Inhibition of NEK4 conserved Lys2 (DLKTQNVFLTR) in human PBMC at 1 uM
# [8] = target: Ribosomal protein S6 kinase alpha-3 (Homo sapiens) (UniProt P51812); assay: Inhibition of RSK2 domain1 activation Loop (LTDFGLSKESIDHEKK) in human PBMC at 1 uM
# [9] = target: Ribosomal protein S6 kinase alpha-4 (Homo sapiens) (UniProt O75676); assay: Inhibition of MSK2 domain1 conserved Lys2 (DIKLENILLDSNGHVVLTDFGLSK) in human PBMC at 1 uM
# [10] = Intrinsic clearance in rat liver microsomes; type: ADME, microsome; settings: read-out: CLH (converted)
# MDR1 = assay: Efflux ratio of apparent permeability from basolateral to apical over apical to basolateral side in MDCK cells harboring MDR1; type: ADME, cell-based, Canis lupus familiaris; settings: dog
# [11] = target: T2, STE20-related kinase adapter protein alpha (Homo sapiens) (UniProt Q7RTN6); assay: Inhibition of STLK5 conserved Lys2 (SVKASHILISVDGK) in human PBMC at 1 uM
# T2 sequence (whole entry): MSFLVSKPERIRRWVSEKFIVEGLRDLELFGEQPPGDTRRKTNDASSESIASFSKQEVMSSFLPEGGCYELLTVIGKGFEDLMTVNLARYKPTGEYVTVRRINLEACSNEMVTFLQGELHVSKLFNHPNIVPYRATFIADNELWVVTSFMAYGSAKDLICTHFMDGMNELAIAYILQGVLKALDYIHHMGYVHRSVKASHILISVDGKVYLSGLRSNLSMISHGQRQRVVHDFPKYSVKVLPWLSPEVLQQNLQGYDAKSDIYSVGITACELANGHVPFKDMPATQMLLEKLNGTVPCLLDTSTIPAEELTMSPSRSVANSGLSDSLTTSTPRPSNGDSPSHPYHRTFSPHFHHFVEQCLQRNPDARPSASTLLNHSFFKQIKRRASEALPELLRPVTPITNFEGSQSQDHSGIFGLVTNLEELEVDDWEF
# [12] = target: T2, STE20-related kinase adapter protein alpha (Homo sapiens); assay: Inhibition of STLK5 activation loop (YSVKVLPWLSPEVLQQNLQGYDAK) in human PBMC at 0.1 uM
# [13] = target: Calcium/calmodulin-dependent protein kinase type II subunit gamma (Homo sapiens) (UniProt Q13555); assay: Inhibition of CaMK2g labeling at conserved Lys2 (DLKPENLLLASK) in human PBMC at 0.1 uM
# [14] = target: Mitogen-activated protein kinase 9 (Homo sapiens) (UniProt P45984); assay: Inhibition of JNK2 conserved Lys2 (DLKPSNIVVK) in human PBMC at 0.1 uM
# [15] = target: Cyclin-dependent kinase 2 (Homo sapiens) (UniProt P24941); assay: Inhibition of CDK2 labeling at conserved Lys2 (DLKPQNLLINTEGAIK) in human PBMC at 1 uM
# [16] = target: Phosphatidylinositol 3-kinase catalytic subunit type 3 (Homo sapiens) (UniProt Q8NEB9); assay: Inhibition of PIK3C3 ATP binding site (TEDGGKYPVIFKHGDDLR) in human PBMC at 0.1 uM
# [17] = target: Phosphatidylinositol 4,5-bisphosphate 3-kinase catalytic subunit beta isoform (Homo sapiens) (UniProt P42338); assay: Inhibition of PIK3CB ATP binding site (VFGEDSVGVIFKNGDDLRQDMLTLQMLR) in human PBMC at 1 uM
# Sequence of Phosphatidylinositol 4,5-bisphosphate 3-kinase catalytic subunit beta isoform (Homo sapiens) (P42338 whole entry, looked up, canonical isoform): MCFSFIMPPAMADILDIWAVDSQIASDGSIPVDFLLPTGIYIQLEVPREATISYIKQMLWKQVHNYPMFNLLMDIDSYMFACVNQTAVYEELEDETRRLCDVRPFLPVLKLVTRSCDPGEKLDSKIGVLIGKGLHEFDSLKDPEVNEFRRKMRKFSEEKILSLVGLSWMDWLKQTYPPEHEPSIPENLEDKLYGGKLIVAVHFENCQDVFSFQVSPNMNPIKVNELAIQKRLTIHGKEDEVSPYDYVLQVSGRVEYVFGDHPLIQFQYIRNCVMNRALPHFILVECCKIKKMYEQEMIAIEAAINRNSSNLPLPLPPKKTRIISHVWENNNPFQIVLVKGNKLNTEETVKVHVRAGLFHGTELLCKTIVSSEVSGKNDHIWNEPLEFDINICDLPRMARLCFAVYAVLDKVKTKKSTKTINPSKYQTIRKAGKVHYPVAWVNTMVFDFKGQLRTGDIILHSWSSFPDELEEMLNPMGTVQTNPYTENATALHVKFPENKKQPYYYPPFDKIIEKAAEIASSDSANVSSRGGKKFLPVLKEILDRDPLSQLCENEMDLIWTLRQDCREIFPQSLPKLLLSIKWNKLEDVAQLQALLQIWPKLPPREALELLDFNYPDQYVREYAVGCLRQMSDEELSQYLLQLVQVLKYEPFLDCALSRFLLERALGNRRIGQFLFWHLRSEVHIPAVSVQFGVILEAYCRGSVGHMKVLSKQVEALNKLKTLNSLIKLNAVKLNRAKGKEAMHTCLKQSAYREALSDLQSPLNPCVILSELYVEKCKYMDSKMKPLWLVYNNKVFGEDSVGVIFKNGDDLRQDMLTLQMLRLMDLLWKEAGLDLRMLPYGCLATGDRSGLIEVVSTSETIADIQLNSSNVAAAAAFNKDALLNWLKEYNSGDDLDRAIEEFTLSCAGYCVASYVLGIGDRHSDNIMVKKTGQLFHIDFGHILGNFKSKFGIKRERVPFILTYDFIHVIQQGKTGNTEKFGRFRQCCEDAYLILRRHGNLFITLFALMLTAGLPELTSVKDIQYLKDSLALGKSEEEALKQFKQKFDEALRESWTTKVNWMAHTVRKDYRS
# Sequence of Serine/threonine-protein kinase Nek4 (Homo sapiens) (P51957 whole entry, looked up, the tested form may be a part): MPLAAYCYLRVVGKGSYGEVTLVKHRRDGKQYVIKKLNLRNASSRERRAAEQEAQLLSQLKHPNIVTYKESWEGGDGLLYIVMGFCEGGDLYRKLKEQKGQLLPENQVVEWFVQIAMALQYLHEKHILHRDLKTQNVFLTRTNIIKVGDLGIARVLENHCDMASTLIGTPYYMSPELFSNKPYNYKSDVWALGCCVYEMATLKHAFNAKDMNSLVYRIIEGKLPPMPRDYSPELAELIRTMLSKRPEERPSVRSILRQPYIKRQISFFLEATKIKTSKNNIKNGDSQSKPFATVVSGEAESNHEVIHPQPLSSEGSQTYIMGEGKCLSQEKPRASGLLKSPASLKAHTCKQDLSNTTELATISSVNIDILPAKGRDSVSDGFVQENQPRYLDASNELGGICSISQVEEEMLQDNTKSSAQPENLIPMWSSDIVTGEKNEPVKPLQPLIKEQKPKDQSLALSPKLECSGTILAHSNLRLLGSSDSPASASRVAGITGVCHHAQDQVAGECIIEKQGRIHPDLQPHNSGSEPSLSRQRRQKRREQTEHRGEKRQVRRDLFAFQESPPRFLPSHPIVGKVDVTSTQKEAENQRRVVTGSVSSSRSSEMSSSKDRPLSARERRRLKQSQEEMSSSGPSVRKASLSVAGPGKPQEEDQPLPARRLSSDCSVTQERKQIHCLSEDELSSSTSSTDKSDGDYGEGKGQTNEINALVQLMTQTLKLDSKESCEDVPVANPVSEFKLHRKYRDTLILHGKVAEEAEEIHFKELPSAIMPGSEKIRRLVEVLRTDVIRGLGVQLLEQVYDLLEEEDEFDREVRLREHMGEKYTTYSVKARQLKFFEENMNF
# Sequence of Ribosomal protein S6 kinase alpha-4 (Homo sapiens) (O75676 whole entry, looked up, the tested form may be a part): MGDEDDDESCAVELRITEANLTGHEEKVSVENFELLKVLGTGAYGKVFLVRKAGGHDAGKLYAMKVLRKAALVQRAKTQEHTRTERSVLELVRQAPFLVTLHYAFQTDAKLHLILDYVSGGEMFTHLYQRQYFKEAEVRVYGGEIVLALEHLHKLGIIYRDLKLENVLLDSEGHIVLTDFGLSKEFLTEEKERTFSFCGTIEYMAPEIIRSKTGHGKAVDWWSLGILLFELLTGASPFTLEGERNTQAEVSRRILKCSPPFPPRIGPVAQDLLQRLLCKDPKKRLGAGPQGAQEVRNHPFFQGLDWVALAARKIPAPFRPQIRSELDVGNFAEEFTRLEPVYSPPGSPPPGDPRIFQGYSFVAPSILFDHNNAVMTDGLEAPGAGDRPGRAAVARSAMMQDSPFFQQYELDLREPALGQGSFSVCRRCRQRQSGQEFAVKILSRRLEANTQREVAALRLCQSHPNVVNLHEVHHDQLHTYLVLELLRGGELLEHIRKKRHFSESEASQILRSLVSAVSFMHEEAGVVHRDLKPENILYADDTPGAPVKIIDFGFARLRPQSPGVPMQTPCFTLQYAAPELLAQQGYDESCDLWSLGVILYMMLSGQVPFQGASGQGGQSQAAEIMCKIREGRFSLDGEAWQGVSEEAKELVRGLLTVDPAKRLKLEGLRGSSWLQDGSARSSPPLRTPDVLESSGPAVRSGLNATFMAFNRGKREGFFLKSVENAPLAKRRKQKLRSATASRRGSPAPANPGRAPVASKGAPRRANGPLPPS
# Sequence of Mitogen-activated protein kinase 9 (Homo sapiens) (P45984 whole entry, looked up): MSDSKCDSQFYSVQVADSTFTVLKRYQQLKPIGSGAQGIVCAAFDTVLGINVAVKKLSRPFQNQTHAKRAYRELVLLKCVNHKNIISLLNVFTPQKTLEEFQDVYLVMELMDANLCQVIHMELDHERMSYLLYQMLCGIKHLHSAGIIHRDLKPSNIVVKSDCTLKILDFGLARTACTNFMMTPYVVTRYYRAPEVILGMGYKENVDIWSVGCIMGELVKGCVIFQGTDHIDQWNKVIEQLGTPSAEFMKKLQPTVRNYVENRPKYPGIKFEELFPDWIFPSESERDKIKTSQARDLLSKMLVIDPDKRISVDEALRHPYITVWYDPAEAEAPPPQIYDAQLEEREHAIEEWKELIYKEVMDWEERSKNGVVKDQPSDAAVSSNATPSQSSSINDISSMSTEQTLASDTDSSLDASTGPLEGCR
# Sequence of Phosphatidylinositol 3-kinase catalytic subunit type 3 (Homo sapiens) (Q8NEB9 whole entry, canonical isoform): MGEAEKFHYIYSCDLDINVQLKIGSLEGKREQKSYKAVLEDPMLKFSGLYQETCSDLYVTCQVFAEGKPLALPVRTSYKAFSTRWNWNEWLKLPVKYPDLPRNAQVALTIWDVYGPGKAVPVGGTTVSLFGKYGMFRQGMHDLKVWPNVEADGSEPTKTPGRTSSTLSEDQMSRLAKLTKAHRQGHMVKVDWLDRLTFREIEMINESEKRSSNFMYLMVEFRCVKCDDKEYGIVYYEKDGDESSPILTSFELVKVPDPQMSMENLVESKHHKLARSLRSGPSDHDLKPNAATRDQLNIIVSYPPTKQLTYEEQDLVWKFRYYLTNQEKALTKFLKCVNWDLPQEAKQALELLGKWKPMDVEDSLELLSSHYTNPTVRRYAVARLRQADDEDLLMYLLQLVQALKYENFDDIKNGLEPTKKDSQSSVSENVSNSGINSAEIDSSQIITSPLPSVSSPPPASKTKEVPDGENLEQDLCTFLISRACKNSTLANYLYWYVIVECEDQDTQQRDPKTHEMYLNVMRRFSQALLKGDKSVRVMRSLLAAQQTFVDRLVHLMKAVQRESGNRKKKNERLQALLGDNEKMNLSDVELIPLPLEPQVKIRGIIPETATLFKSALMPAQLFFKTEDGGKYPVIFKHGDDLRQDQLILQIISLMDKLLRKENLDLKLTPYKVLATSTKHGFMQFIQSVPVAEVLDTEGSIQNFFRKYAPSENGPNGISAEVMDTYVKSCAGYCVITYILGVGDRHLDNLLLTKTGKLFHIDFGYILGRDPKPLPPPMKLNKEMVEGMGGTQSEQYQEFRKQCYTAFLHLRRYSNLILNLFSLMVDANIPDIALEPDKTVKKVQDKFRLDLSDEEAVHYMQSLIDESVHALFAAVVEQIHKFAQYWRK
# Sequence of Serine/threonine-protein kinase PLK1 (Homo sapiens) (P53350 whole entry): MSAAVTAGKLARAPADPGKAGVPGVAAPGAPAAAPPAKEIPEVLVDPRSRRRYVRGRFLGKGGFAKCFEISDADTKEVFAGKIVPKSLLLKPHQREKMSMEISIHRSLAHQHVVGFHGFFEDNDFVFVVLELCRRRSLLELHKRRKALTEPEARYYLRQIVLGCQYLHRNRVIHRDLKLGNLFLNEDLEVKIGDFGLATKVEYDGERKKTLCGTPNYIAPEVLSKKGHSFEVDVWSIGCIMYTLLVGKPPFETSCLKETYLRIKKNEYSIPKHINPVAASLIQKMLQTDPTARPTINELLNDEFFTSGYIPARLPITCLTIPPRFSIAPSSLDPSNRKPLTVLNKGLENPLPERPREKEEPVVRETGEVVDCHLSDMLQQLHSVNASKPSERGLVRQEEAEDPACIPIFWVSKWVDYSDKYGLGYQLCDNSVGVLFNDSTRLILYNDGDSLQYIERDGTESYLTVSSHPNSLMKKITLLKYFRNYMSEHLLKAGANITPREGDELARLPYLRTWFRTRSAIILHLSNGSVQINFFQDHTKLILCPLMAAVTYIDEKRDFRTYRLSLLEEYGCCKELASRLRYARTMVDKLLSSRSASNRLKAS
# Sequence of Dual specificity mitogen-activated protein kinase kinase 7 (Homo sapiens) (O14733 whole entry, canonical isoform): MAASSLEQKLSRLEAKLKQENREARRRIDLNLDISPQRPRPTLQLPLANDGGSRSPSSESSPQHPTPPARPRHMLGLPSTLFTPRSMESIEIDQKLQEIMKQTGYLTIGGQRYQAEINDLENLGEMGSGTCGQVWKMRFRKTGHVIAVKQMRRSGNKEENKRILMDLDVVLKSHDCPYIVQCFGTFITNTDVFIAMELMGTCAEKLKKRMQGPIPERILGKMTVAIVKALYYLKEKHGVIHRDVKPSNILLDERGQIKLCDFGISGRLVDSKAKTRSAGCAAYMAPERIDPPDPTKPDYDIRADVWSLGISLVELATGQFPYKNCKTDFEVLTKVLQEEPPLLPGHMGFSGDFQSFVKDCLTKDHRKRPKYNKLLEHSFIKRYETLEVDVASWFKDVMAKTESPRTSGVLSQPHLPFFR
compound,measurement,setting,value
CC(C)n1cc(-c2cc(-c3ccc(CN4CCOCC4)cc3)cnc2N)nn1,inhibition,[1],24.7%
same,inhibition,[2],18.6%
same,inhibition,[3],0.5%
same,inhibition,[4],13.8%
same,inhibition,[5],14.7%
same,inhibition,[6],4%
same,inhibition,[7],-1.7%
same,inhibition,[8],22%
same,inhibition,[9],10.3%
same,CLint scaled,[10],157 mL/min/kg
same,efflux ratio,MDR1,0.68
same,inhibition,[11],8.7%
same,inhibition,[12],-9.8%
same,inhibition,[13],-7.5%
same,inhibition,[14],25.1%
same,inhibition,[15],16.8%
same,inhibition,[16],14.1%
same,inhibition,[17],21.2%
